Some results are limits rather than exact numbers.

One data set addresses T1, human NHE-3 (Homo sapiens, UniProt P48764).
T1 construct: expressed in transfected cells; host or cells: Opossum kidney (OK) cells (ATCC), transfected by electroporation
T1 sequence (P48764 26-834): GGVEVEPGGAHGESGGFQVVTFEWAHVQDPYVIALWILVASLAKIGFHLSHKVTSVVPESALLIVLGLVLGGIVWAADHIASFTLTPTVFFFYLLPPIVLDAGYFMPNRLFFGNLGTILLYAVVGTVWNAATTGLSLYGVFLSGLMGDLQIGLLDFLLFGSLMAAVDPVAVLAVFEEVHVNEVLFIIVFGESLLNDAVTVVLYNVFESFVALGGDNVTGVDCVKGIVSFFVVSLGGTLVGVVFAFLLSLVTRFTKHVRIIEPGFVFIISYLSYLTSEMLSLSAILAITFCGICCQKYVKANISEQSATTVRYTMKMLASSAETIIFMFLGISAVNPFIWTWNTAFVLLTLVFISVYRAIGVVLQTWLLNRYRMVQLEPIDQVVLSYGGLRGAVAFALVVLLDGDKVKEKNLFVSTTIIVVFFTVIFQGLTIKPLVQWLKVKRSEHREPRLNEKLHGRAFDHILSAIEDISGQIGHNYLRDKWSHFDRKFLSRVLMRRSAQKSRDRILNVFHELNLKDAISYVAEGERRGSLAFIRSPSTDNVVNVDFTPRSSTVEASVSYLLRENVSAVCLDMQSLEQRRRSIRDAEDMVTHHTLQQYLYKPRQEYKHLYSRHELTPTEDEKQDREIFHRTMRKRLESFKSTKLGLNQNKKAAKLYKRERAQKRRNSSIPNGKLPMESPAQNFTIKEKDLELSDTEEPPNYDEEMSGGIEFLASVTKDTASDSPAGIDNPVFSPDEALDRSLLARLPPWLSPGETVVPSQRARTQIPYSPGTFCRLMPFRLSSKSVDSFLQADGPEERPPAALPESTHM
Nature of the data set: Cell-based assay of NHE-3 activity (human NHE3 inhibition assay). Conditions: OK cells with human NHE-3 gene, BCECF pH dye, 0-30 μM test compound; for IC50: read-out: Human NHE3 pIC50 (converted). In short, it runs like this:
(§1)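 Opossum kidney cells electroporated with rat or human NHE-3, loaded with 5 μM BCECF-AM in NH4Cl-HEPES pH 7.4 for 30 min at RT, then acidified 10 min in Na+-free choline HEPES. Na+-dependent pH recovery rates from BCECF fluorescence, averaged over ≥2 replicates, gave pIC50.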

Data set [1] has as its target T2, Rat NHE-3 (Rattus norvegicus, UniProt P26433).
T2 construct: expressed in transfected cells; host or cells: Opossum kidney (OK) cells (ATCC), transfected by electroporation
In words: Cell-based assay of NHE-3 activity (rat NHE-3 prompt inhibition). Conditions: OK cells with rat NHE-3 gene, compound present during pH recovery; for IC50: read-out: Rat NHE3 pIC50 (prompt) (converted). In short, it runs like this: as §1

Data set [2] deals with T2, Rat NHE-3. In words: Cell-based assay of NHE-3 activity (persistent inhibition, after washout). The conditions noted are these: OK cells with rat NHE-3 gene, 60 min incubation, recovery initiated 40 min after compound washout; for IC50: read-out: Rat NHE3 pIC50 (persistent) (converted). In short, it runs like this: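 OK cells transiently expressing rat NHE-3 were exposed to 0-30 μM compound in NaCl-HEPES pH 7.4 for 60 min, then washed free of drug before NH4Cl/BCECF-AM loading and acid-loading in Na+-free choline buffer. Na+-dependent pH recovery rates (mean of ≥2 replicates) gave pIC50.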

A further data set can be described thus: Fecal recovery. Conditions: rat, 1 mg/kg oral gavage; for dose excreted: male, Sprague-Dawley, faeces. Format: in vivo, Sprague Dawley rats. The procedure: Three male Sprague Dawley rats were administered 1 mg/kg test compound by oral gavage. Feces were collected from study animals from 0-48 or 0-72 hours after dosing, dried by lyophilization, and homogenized. Replicate aliquots of 40-60 mg each were subjected to extraction/protein precipitation with 7:1 acetonitrile:water and centrifuged. Supernatants were diluted 1:10 in 50:50 acetonitrile:water prior to analysis by LC-MS/MS. Compound concentrations, determined by interpolation from a standard calibration curve prepared in blank feces matrix, were converted to the percentage of dosed material recovered by taking into account the total collected fecal matter. The percent recovery for each rat was reported as the mean of the calculations from replicate samples. The overall percent recovery (Fecal Recovery [%]) was reported as the mean percent recovery from three rats. Accurate quality control sample recoveries were confirmed in each run, and extraction efficiency was periodically verified.

T2 sequence (P26433 29-831): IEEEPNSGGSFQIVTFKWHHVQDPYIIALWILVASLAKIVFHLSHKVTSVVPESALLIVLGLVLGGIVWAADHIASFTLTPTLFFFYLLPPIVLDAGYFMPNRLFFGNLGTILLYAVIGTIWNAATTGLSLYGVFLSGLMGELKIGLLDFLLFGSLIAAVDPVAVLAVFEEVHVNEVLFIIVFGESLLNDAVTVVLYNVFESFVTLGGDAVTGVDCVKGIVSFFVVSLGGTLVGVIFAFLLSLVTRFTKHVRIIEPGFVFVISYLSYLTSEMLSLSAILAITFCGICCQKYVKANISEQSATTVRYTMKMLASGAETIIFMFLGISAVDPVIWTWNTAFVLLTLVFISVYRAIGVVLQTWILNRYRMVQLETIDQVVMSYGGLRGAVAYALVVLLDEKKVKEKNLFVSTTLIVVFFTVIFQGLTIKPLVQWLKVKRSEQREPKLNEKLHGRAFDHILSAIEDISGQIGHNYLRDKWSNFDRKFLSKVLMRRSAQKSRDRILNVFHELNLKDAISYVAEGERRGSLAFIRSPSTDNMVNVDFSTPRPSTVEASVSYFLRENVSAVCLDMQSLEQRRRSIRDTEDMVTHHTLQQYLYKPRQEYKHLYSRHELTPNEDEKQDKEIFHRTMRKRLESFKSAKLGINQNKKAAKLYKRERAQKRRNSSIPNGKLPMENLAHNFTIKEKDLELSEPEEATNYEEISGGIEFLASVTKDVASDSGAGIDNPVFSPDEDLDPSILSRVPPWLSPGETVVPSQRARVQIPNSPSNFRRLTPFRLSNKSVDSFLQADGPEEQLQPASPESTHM

Take `CN1Cc2c(Cl)cc(Cl)cc2[C@H](c2cccc(S(=O)(=O)NCCOCCOCCNC(=O)CCC(CCC(=O)NCCOCCOCCNS(=O)(=O)c3cccc([C@@H]4CN(C)Cc5c(Cl)cc(Cl)cc54)c3)(CCC(=O)NCCOCCOCCNS(=O)(=O)c3cccc([C@@H]4CN(C)Cc5c(Cl)cc(Cl)cc54)c3)NC(=O)NC(CO)(CO)CO)c2)C1` [Example 11, N^1,N^7-bis(2-(2-(2-(3-((S)-6,8-dichloro-2-methyl-1,2,3,4-tetrahydroisoquinolin-4-yl)phenylsulfonamido)ethoxy)ethoxy)ethyl)-4-(3-(2-(2-(2-(3-((S)-6,8-dichloro-2-methyl-1,2,3,4-tetrahydroisoquinolin-4-yl)phenylsulfonamido)ethoxy)ethoxy)ethylamino)-3-oxopropyl)-4-(3-(1,3-dihydroxy-2-(hydroxymethyl)propan-2-yl)ureido)heptanediamide]: the figures for the IC50 on human NHE-3, on Rat NHE-3 [1] and at Rat NHE-3 [2] were 100 to 10000 nM, greater than 10000 nM and less than 100 nM, respectively. Further, the dose excreted in “Fecal recovery” (collection time 48 h) was 64.1%.
Take `CN1Cc2c(Cl)cc(Cl)cc2[C@H](c2cccc(S(=O)(=O)NCCOCCOCCNC(=O)NCCCC(CCCNC(=O)NCCOCCOCCNS(=O)(=O)c3cccc([C@@H]4CN(C)Cc5c(Cl)cc(Cl)cc54)c3)(CCCNC(=O)NCCOCCOCCNS(=O)(=O)c3cccc([C@@H]4CN(C)Cc5c(Cl)cc(Cl)cc54)c3)NC(=O)NC[C@H](O)[C@@H](O)[C@H](O)[C@H](O)CO)c2)C1` [Example 65]: the “Human NHE3 pIC50” value on human NHE-3 is “C (C NHE3 pIC50 > 7)”. Besides, the “Rat NHE3 pIC50 (prompt)” value at Rat NHE-3 [1] was “B (B NHE3 pIC50 5-7)”. The “Rat NHE3 pIC50 (persistent)” value on Rat NHE-3 [2] was “C (C NHE3 pIC50 > 7)”. In addition, the dose excreted in “Fecal recovery” (collection time 48 h) stood at 112%.
For the compound `CN1Cc2c(Cl)cc(Cl)cc2[C@H](c2cccc(S(=O)(=O)NCCOCCOCCNC(=O)CCC(CCC(=O)NCCOCCOCCNS(=O)(=O)c3cccc([C@@H]4CN(C)Cc5c(Cl)cc(Cl)cc54)c3)(CCC(=O)NCCOCCOCCNS(=O)(=O)c3cccc([C@@H]4CN(C)Cc5c(Cl)cc(Cl)cc54)c3)NC(=O)CCC(=O)O)c2)C1` [Example 40], on human NHE-3, the “Human NHE3 pIC50” value is reported as “C (C NHE3 pIC50 > 7)”. Further, at Rat NHE-3 [1], the “Rat NHE3 pIC50 (prompt)” value was “C (C NHE3 pIC50 > 7)”. In addition, the “Rat NHE3 pIC50 (persistent)” value on Rat NHE-3 [2] was “C (C NHE3 pIC50 > 7)”. Moreover, in the data set “Fecal recovery” (collection time 48 h), the “Fecal Recovery” value is 99.1%.
As to `CN1Cc2c(Cl)cc(Cl)cc2[C@H](c2cccc(S(=O)(=O)NCCOCCOCCNC(=O)NCCCC(N)(CCCNC(=O)NCCOCCOCCNS(=O)(=O)c3cccc([C@@H]4CN(C)Cc5c(Cl)cc(Cl)cc54)c3)CCCNC(=O)NCCOCCOCCNS(=O)(=O)c3cccc([C@@H]4CN(C)Cc5c(Cl)cc(Cl)cc54)c3)c2)C1` [Example 62], the “Human NHE3 pIC50” value at human NHE-3 is reported as “C (C NHE3 pIC50 > 7)”. The “Rat NHE3 pIC50 (prompt)” value on Rat NHE-3 [1] was “B (B NHE3 pIC50 5-7)”. In addition, the “Rat NHE3 pIC50 (persistent)” value at Rat NHE-3 [2] is reported as “C (C NHE3 pIC50 > 7)”. The compound further displayed a dose excreted in the data set “Fecal recovery” (collection time 48 h) of 81.5%.
On to `CN1Cc2c(Cl)cc(Cl)cc2[C@H](c2cccc(S(=O)(=O)NCCOCCOCCNC(=O)CCC(CCC(=O)NCCOCCOCCNS(=O)(=O)c3cccc([C@@H]4CN(C)Cc5c(Cl)cc(Cl)cc54)c3)(CCC(=O)NCCOCCOCCNS(=O)(=O)c3cccc([C@@H]4CN(C)Cc5c(Cl)cc(Cl)cc54)c3)NC(=O)CCCC(=O)O)c2)C1` [Example 36], for which the “Human NHE3 pIC50” value at human NHE-3 was “C (C NHE3 pIC50 > 7)”. Also, the “Rat NHE3 pIC50 (prompt)” value on Rat NHE-3 [1] is given as “C (C NHE3 pIC50 > 7)”. In addition, at Rat NHE-3 [2], the “Rat NHE3 pIC50 (persistent)” value was “C (C NHE3 pIC50 > 7)”. Also, the “Fecal Recovery” value in the data set “Fecal recovery” (collection time 48 h) is given as 68%.
On to `CN1Cc2c(Cl)cc(Cl)cc2[C@H](c2cccc(S(=O)(=O)NCCOCCOCCNC(=O)CCC(CCC(=O)NCCOCCOCCNS(=O)(=O)c3cccc([C@@H]4CN(C)Cc5c(Cl)cc(Cl)cc54)c3)(CCC(=O)NCCOCCOCCNS(=O)(=O)c3cccc([C@@H]4CN(C)Cc5c(Cl)cc(Cl)cc54)c3)NC(=O)NCCN3CCOCC3)c2)C1` [Example 17, N^1,N^7-bis(2-(2-(2-(3-((S)-6,8-dichloro-2-methyl-1,2,3,4-tetrahydroisoquinolin-4-yl)phenylsulfonamido)ethoxy)ethoxy)ethyl)-4-(3-(2-(2-(2-(3-((S)-6,8-dichloro-2-methyl-1,2,3,4-tetrahydroisoquinolin-4-yl)phenylsulfonamido)ethoxy)ethoxy)ethylamino)-3-oxopropyl)-4-(3-(2-morpholinoethyl)ureido)heptanediamide], for which the IC50 at human NHE-3, on Rat NHE-3 [1] and on Rat NHE-3 [2] was less than 100 nM in each case. For the same compound, the dose excreted in “Fecal recovery” (collection time 72 h) was 96.9%.
Take `CN1Cc2c(Cl)cc(Cl)cc2[C@H](c2cccc(S(=O)(=O)NCCOCCOCCNC(=O)CCC(CCC(=O)NCCOCCOCCNS(=O)(=O)c3cccc([C@@H]4CN(C)Cc5c(Cl)cc(Cl)cc54)c3)(CCC(=O)NCCOCCOCCNS(=O)(=O)c3cccc([C@@H]4CN(C)Cc5c(Cl)cc(Cl)cc54)c3)NC(=O)COCC(=O)O)c2)C1` [Example 6, 1-(3-((S)-6,8-dichloro-2-methyl-1,2,3,4-tetrahydroisoquinolin-4-yl)phenylsulfonamido)-13,13-bis(3-(2-(2-(2-(3-((S)-6,8-dichloro-2-methyl-1,2,3,4-tetrahydroisoquinolin-4-yl)phenylsulfonamido)ethoxy)ethoxy)ethylamino)-3-oxopropyl)-10,15-dioxo-3,6,17-trioxa-9,14-diazanonadecan-19-oic Acid]: the IC50 at human NHE-3, at Rat NHE-3 [1] and on Rat NHE-3 [2] was less than 100 nM in each case. The compound further displayed a dose excreted in “Fecal recovery” (collection time 48 h) of 51.5%.
On to `CN1Cc2c(Cl)cc(Cl)cc2[C@H](c2cccc(S(=O)(=O)NCCOCCOCCNC(=O)CCC(CCC(=O)NCCOCCOCCNS(=O)(=O)c3cccc([C@@H]4CN(C)Cc5c(Cl)cc(Cl)cc54)c3)(CCC(=O)NCCOCCOCCNS(=O)(=O)c3cccc([C@@H]4CN(C)Cc5c(Cl)cc(Cl)cc54)c3)NC(=O)NCCS(=O)(=O)O)c2)C1` [Example 3], for which the IC50 on human NHE-3, at Rat NHE-3 [1] and at Rat NHE-3 [2] was less than 100 nM each time. In addition, the dose excreted in “Fecal recovery” (collection time 72 h) was found to be 110%.
Consider `CN1Cc2c(Cl)cc(Cl)cc2[C@H](c2cccc(S(=O)(=O)NCCOCCOCCNC(=O)CCC(N)(CCC(=O)NCCOCCOCCNS(=O)(=O)c3cccc([C@@H]4CN(C)Cc5c(Cl)cc(Cl)cc54)c3)CCC(=O)NCCOCCOCCNS(=O)(=O)c3cccc([C@@H]4CN(C)Cc5c(Cl)cc(Cl)cc54)c3)c2)C1` [Example 2, 4-amino-N^1,N^7-bis(2-(2-(2-(3-((S)-6,8-dichloro-2-methyl-1,2,3,4-tetrahydroisoquinolin-4-yl)phenylsulfonamido)ethoxy)ethoxy)ethyl)-4-(3-(2-(2-(2-(3-((S)-6,8-dichloro-2-methyl-1,2,3,4-tetrahydroisoquinolin-4-yl)phenylsulfonamido)ethoxy)ethoxy)ethylamino)-3-oxopropyl)heptanediamide], for which the IC50 at human NHE-3, at Rat NHE-3 [1] and on Rat NHE-3 [2] was less than 100 nM throughout. Also, in “Fecal recovery” (collection time 48 h), the dose excreted is 87%.

The record behind these values is patent US10385024B2, “Compounds and methods for inhibiting NHE-mediated antiport in the treatment of disorders associated with fluid retention or salt overload and gastrointestinal tract disorders” (Ardelyx, Inc., priority 2012, dated 2019).
